Laboratory results published in patent US6664106B1, “Production of primmorphs from disassociated cells of sponges and corals” (priority 1998, dated 2003).

Key:
Format in all cases: cell-based, Suberites domuncula
[1] = tested on: primmorphs from S. domuncula; assay: DNA synthesis in primmorphs by BrdU labelling; settings: for percentage share of BrdU-positive cells (change in words): after addition as nutrient
Experimental: In order to determine the cell proliferation, the integration of BrdU [5-bromo-2′-deoxy-uridine] into the cellular DNA was measured using the “BrdU-iabeling and detection kit”, in accordance with the manufacturer's instructions.
For this purpose, the primmorphs are incubated, usually in 1 ml of the seawater/antibiotic solution, which also contains the BrdU labelling solution [final dilution: usually 1:1,000 (10 μM of BrdU)]. The incubation period is usually 12 hours; the incubation itself is carried out in culture chambers [e.g. the “culture chamber slides (Nunc)”—catalogue number 177453]. Subsequently, the cells are dissociated in CFMSW-E, washed three times in CFMSW-E and fixed/denatured in 70% ethanol [pH 2.0]. After that, the cells are incubated with anti-BrdU mouse monoclonal antibodies and the immune complex is made visible with anti-mouse Ig coupled to alkaline phosphatase and with the dye substrate nitro-blue tetrazolium salt. The cells are analysed under a light-optical microscope.
The primary primmorphs were obtained from individual cells from S. domuncula and used for the experiments after 21 days.
For this reason, the influence of a phorbol ester, phorbol 12-inyristate 13-acetate (PMA), on the percentage of BrdU-positive cells in primmorphs from S. domuncula was determined. The primmorphs were incubated for two days with different concentrations of PMA. After that, the DNA synthesis was determined by means of BrdU labelling as described above. The control, percentage of BrdU-positive cells in primmorphs without the test substance, was set at 100%.
FIG. 5. Influence of the phorbol ester phorbol 12-myristate 13-acetate (PMA) on the percentage share of BrdU-positive cells in primmorphs from S. domuncula. The primmorphs were incubated for two days with different concentrations of PMA. After this, DNA synthesis was determined by means of BrdU labelling. The control, percentage share of BrdU-positive cells among primmorphs without the test substance, was set at 100%. 300 cells were counted per batch.
FIG. 6. Influence of cadmium, concentrations between 0.1 ng/ml and 100 ng/ml were chosen, on the amount of the percentage share of BrdU-positive cells among primmorphs.

[2] = tested on: primmorphs from S. domuncula; assay: Proliferation of cells in primmorphs (parallel batches, BrdU-positive binuclear stages); settings: 0.01 to 1 μg PMA/ml
Experimental: In order to determine whether the cells do in fact divide after the DNA synthesis, the same batches were analysed which were also used to detect the incorporation of BrdU into cells from the primmorphs of S. domuncula. Those cells which were positive for BrdU and which were still in the binuclear stage after undergoing mitosis were counted.
In line with the above comments, it was also examined in parallel batches whether any change in proliferation occurred after incubation with the agent used here.

[3] = tested on: primmorphs from S. domuncula; assay: Size (diameter) of primmorphs after addition of nutrients; settings: after addition as nutrient

Row | Molecule | percentage of BrdU-positive cells in primmorphs ([1]; 0.01 to 1 μg PMA/ml, incubated for two days, control without test substance set at 100%) | proliferation of cells in primmorphs [2] | percentage of BrdU-positive cells in primmorphs ([1]; cadmium at a concentration of 1 ng/ml and more, single exposure) | percentage share of BrdU-positive cells (change in words) [1] | size of the primmorphs (change in words) [3]
1 | CCCCCCCCCCCCCC(=O)O[C@@H]1[C@@H](C)[C@@]2(O)[C@@H](C=C(CO)C[C@]3(O)C(=O)C(C)=C[C@@H]23)[C@@H]2C(C)(C)[C@]12OC(C)=O [PMA, phorbol 12-myristate 13-acetate] | distinct percentage increase | increase |  |  | 
2 | [Cd] [cadmium] |  |  | decline |  | 
3 | phosphatidylinositol |  |  |  | rise | increase
4 | phosphatidyl serine |  |  |  | rise | increase
